Read-outs that look alike come from different tables or passages of the source.
How the values were obtained:
[1] = biological target: KRAS-G12C/SOS1 (Homo sapiens (Human), UniProt Q07889); experiment: Detection of inhibitory effects of compounds on KRAS-G12C/SOS1 (KRASG12C/SOS binding kit, HTRF); conditions: Em665/620, read-out: IC50, inhibitory activity on interaction of KRAS-G12C/SOS1
Summary of the method: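 HTRF binding of Tag2-KRAS-G12C to Tag1-SOS1 with compounds (10-point 3-fold dilution from 5,000 nM) for 15 min at room temperature, then anti-Tag1-Tb and anti-Tag2-XL665 for 120 min at 4° C. Em665/620 read; inhibition normalised to control wells, IC50 from variable-slope log(inhibitor) fit.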

[2] = tested on: p-ERK of PC-9 cells; experiment: p-ERK HTRF assay in PC-9 cells; assay type: cell-based; conditions: PC-9 lung cancer cells, 1 hour treatment, read-out: IC50, inhibitory activity on p-ERK of PC-9 cells
Summary of the method: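 PC-9 lung cancer cells plated overnight, then exposed 1 h at 37 °C to a 10-point compound series (10,000–[…] nM final, 0.1% DMSO). After 1 h lysis, phospho-ERK1/2 (Thr202/Tyr204) measured by HTRF at 665/615 nm. Percent inhibition calculated from max and min signals.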

KRAS-G12C/SOS1, sequence (Q07889 whole entry, stated change not applied): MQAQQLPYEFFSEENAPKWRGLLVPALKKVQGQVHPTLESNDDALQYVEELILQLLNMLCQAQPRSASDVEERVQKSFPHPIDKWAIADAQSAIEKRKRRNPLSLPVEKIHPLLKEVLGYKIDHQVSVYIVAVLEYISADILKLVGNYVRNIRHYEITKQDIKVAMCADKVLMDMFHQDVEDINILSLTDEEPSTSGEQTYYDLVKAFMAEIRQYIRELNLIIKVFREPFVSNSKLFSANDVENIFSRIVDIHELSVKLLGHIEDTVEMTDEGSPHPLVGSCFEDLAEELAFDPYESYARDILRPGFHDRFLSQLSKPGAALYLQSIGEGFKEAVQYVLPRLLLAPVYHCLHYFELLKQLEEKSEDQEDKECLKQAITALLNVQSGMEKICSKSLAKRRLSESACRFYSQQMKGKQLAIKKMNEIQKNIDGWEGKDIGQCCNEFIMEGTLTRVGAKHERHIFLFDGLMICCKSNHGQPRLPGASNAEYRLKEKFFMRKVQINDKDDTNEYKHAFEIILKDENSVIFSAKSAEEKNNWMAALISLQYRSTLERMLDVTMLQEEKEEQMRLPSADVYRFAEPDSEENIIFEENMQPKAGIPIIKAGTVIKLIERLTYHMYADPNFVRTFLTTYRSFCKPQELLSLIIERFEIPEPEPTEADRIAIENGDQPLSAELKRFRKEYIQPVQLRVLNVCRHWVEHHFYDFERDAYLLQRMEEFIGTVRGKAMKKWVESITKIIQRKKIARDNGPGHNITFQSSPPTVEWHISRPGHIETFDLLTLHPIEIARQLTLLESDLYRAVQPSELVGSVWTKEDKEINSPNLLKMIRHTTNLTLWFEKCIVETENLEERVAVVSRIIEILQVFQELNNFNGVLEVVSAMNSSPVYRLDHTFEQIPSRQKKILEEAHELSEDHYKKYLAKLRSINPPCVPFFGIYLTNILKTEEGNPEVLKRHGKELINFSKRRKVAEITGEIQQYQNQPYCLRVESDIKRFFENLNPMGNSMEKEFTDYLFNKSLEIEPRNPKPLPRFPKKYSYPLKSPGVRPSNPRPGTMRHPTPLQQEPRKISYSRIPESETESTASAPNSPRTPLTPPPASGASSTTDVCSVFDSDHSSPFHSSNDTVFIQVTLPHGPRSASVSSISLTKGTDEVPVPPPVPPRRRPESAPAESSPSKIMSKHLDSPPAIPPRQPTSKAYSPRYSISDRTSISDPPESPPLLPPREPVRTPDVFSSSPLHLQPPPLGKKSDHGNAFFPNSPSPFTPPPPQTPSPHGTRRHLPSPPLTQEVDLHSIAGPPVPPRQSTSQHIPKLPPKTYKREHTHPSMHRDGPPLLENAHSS

Structure (SMILES) | IC50 [1] [nM] | IC50 [2] [nM] | IC50 ([2]; Homo sapiens, PC-9, 1 h) [nM]
C[C@@H](Nc1ccnc2cnc(C3(O)CCC(C(C)(C)O)CC3)cc12)c1cccc(C(F)(F)F)c1F (single isomer, unassigned) [Compound B-115-P1] | 100 to 500 | > 1000 | –
C[C@@H](Nc1ccnc2cnc(C3(O)CCN(Cc4ccccn4)CC3)cc12)c1cccc(C(F)F)c1F [Compound B-159] | ≤ 100 | – | 300 to 1000
C[C@@H](Nc1ccnc2cnc(C3(O)CCC(N(C)C)CC3)cc12)c1cccc(C(F)F)c1F (single isomer, unassigned) [Compound B-94-P2] | ≤ 100 | – | ≤ 300
C[C@@H](Nc1ccnc2cnc(C3(O)CCC(O)CC3)cc12)c1cccc(C(F)(F)F)c1F (single isomer, unassigned) [Compound B-85-P2] | ≤ 100 | ≤ 300 | –

More lines, now with the values ahead:

IC50 [1] [nM] | IC50 [2] [nM] | IC50 ([2]; Homo sapiens, PC-9, 1 h) [nM] | Structure (SMILES)
≤ 100 | – | > 1000 | C[C@@H](Nc1ccnc2cnc(N3CCC(C(=O)O)CC3)cc12)c1cccc(C(F)F)c1F [Compound B-35]
≤ 100 | – | 300 to 1000 | COC1(c2cc3c(N[C@H](C)c4cccc(C(F)F)c4F)ccnc3cn2)CCOCC1 [Compound B-104]
≤ 100 | – | 300 to 1000 | C[C@@H](Nc1ccnc2cnc(C3(O)CCN(C(=O)N4CC[C@@H](O)C4)CC3)cc12)c1cccc(C(F)F)c1F [Compound B-162]

Source: patent US20250042857A1, “SOS1 Inhibitor With Pyrido-Fused Six-Membered Ring Structure” (HAIHE BIOPHARMA CO., LTD., priority 2021, published 2025)
